What was measured:
β-adrenoreceptor (β1) [1] = molecular target: T1, β-adrenoreceptor (β1) (Rattus norvegicus, UniProt P18090); assay: Isolated right atrium, L-isoproterenol-induced heart rate increase (pA2); parameters: species or system Wistar rat; settings: for β1 Value of pA2 Right Atrium: vs L-isoproterenol, Schild plot
T1 construct: The right and left atria were then separated; from tissue; host or cells: isolated rat right atrium (spontaneously beating) and left atrium (electrically paced)
T1 sequence (P18090 whole entry): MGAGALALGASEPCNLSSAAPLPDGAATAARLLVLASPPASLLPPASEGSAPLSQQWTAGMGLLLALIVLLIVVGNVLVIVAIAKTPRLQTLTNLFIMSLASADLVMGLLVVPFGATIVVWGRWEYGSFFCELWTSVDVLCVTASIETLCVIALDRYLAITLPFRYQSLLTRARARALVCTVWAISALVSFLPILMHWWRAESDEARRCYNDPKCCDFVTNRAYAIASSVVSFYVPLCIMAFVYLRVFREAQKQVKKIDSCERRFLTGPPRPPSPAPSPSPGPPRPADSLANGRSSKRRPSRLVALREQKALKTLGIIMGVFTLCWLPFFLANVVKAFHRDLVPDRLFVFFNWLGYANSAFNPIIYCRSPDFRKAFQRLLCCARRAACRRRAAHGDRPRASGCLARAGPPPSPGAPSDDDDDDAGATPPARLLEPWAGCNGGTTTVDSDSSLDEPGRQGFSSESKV
Experimental: The right and left atria were then separated. The spontaneously-beating right atria was clipped on both end by heart shaped clips, where one end was fixed at the bottom of 10 ml of tissue bath made of physiological saline solution, and temperature maintained at 37° C. The other end of the atria was connected to a force transducer, and isometric contractions and beating rate of the right atria were recorded by COULBOURN AT-High-Speed VideoFigure. After the samples were given 250 mg of contractions and reach equilibrium the following experiments were carried out: • (a) β-adrenoceptor blocking action
Cumulative administration interval was when the previous concentration reached its greatest effect, the next concentration would be immediately given.
The equation is as follows: pA2=−Log KB Log(DRADJ−1)=nlog[B]−LogKB [formula]
[B] Test compound concentration in moles • KB: equilibrium dissociation constant • n: value of slope DR: test EC50 divided by control EC50 • CF: EC50 of second or third control groups divided by EC50 of first control group (c) Effect of Compound on the Increase of Spontaneous Beating in Right Atrium Caused by CaCl2

β-adrenoreceptor (β1) [2] = molecular target: T1, β-adrenoreceptor (β1); assay: Isolated left atrium, L-isoproterenol-induced contractility increase (pA2); parameters: species or system Wistar rat; settings: for β1 Value of pA2 Left Atrium: vs L-isoproterenol, electrically stimulated
Experimental: The inspontaneously-beating left atrial tissue was obtained from rat's isolated right atrial tissue experiments. […] The contraction rate was 1 Hz and the resting tension 0.5 gm. After 60 minutes of equilibration, the following experiments were performed:
(a) Completion of cumulative concentration-response curve: similar to experimental method on isolated right atrium;
(b) Calculation of pA2 value: similar to calculation method on isolated right atrium.

β2 = molecular target: T2, β2 (Cavia porcellus, UniProt Q8K4Z4); assay: Guinea pig's isolated tracheal, L-isoproterenol relaxation of carbachol contraction (pA2); settings: for β2 Value of pA2 Tracheal: vs L-isoproterenol, carbachol 10^−6 M contraction
T2 construct: a portion of tracheal approximately 4 cm long was removed; from tissue; host or cells: isolated trachea of reserpine-pretreated guinea pigs
T2 sequence (Q8K4Z4 whole entry): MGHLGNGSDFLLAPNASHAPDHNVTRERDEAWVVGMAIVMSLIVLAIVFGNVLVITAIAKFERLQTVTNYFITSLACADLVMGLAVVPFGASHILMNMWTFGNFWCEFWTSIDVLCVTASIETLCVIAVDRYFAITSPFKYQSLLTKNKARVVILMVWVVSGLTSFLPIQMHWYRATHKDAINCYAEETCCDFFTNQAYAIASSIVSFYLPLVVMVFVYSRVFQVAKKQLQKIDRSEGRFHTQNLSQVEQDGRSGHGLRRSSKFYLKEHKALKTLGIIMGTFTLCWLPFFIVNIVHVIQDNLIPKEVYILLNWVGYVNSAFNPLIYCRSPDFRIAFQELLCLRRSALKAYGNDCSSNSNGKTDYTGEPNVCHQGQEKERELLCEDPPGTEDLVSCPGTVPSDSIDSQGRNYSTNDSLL
Experimental: Guinea pigs of weight between 300˜500 gm were used. […] After the guinea pigs were sacrificed, a slit was made along the neck, and a portion of tracheal approximately 4 cm long was removed. […] The two ends of the tracheal were clamped with frog-heart shaped clamps, one end was fixed at the bottom of tissue bath filled with 20 ml of Kreb's solution, maintained at 37° C., while the other end was connected to a force transducer. Through a COULBOURN AT-High-Speed Videograph, long isometric contractions were recorded. After the sample was given 1.5 gm of tension and equilibrated, the following experiments were performed:
Then the tracheal was repeatedly washed with Kreb's solution for 20 minutes and 10−6 M of carbochol was added to cause contraction in the guinea pig's tracheal. […] This is the test group.
(b) Calculation of pA2: similar to the calculation method for isolated right atrium experiment.

atrial β 1-receptor = molecular target: T3, atrial β 1-receptor (Rattus norvegicus, UniProt P18090); type: binding, Wistar rat; settings: 25° C., 60 minutes
T3 construct: The heart and lung of rat were removed and placed in cold Tris buffer; from tissue; host or cells: membrane preparation from rat atria
T3 sequence (P18090 whole entry): as the sequence (P18090 whole entry) above

lung β 2-receptor = molecular target: T4, lung β 2-receptor (Rattus norvegicus, UniProt P10608); type: binding, Wistar rat; settings: 25° C., 60 minutes
T4 construct: The heart and lung of rat were removed and placed in cold Tris buffer; from tissue; host or cells: membrane preparation from rat lung
T4 sequence (P10608 whole entry): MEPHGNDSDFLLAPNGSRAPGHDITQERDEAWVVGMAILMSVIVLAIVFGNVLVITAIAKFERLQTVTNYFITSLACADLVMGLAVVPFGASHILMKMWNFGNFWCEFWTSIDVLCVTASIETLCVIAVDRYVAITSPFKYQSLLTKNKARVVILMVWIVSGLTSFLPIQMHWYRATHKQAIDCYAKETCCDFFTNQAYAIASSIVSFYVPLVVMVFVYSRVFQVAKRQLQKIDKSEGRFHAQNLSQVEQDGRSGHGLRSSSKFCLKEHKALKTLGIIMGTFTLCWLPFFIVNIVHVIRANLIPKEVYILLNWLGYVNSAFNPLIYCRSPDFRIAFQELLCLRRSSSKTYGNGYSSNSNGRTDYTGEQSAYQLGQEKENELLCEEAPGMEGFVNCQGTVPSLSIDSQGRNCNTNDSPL

isolated atria = assay: Direct effect (intrinsic sympathomimetic activity) on reserpine pretreated isolated atria; parameters: species or system Wistar rat
Experimental: Wistar rats of weight between 200˜300 gm were used. 18˜24 hours before the experiment, 5 mg/kg of reserpine was injected via abdominal cavity to remove all endogenous catecholamines. Prior experiment, Wistar rats were sacrificed, the heart was immediately removed and placed in Kreb's solution aerated with air mixture and maintained at room temperature. The right and left atria were carefully separated.

β2-adrenoceptor = molecular target: T5, β2-adrenoceptor (Cavia porcellus, UniProt Q8K4Z4); assay: Direct effect (intrinsic sympathomimetic activity) on reserpine pretreated isolated tracheal; parameters: species or system guinea pig
T5 construct: a portion of tracheal approximately 4 cm long was removed; from tissue; host or cells: isolated trachea of reserpine-pretreated guinea pigs
T5 sequence (Q8K4Z4 whole entry): as the sequence (Q8K4Z4 whole entry) above
Experimental: 18˜24 hours before the experiment, 5 mg/kg of reserpine was injected via abdominal cavity to remove all endogenous catecholamines. Prior experiment, guinea pigs were sacrificed, the tracheal was immediately removed and placed in Kreb's solution aerated with air mixture and maintained at room temperature of 22˜25° C. […] Then the tissue was repeatedly washed with Kreb's solution.

right atrium = settings: 10^−7, 10^−6, and 10^−5M; CaCl2 3.0, 6.0, 9.0 mM
Experimental: The right atrium of the rats was allowed to equilibrate in Kreb's solution for at least 60 minutes. When the spontaneous beating rate had reached a certain stability, CaCl2 of different concentrations (3.0, 6.0, and 9.0 mM) were cumulatively administered, and the changes in the spontaneous beating of right atrium were observed. […] 30 minutes later, different concentrations (3.0, 6.0, and 9.0 mM) were cumulatively administered, and the changes in the spontaneous beating of right atrium were observed again.

Calcium = Calcium antagonism (pKCa^−1, Table 2)
[3] = molecular target: cerebral cortex calcium ion receptors; settings: 25° C., 60 minutes
A7r5 cells = settings: 10^−8, 10^−7, 10^−6M for 5 minutes

SMILES: COC(=O)C1=C(C)NC(C)=C(C(=O)OC)C1c1ccc(OCC(O)CNC(C)(C)C)c(OC)c1 (stereo not drawn) [Compound 1]
- Ratio of β1 and Calcium Antagonism (β-adrenoreceptor (β1) [1]): 0.12
- effect on right atrium relative to tracheal (selectivity ratio of β1 type adrenoceptor) (β-adrenoreceptor (β1) [1]; from average pA2 difference between right atrium and tracheal): 1.32 ×
- β1/β2 (β-adrenoreceptor (β1) [1]; from pA2 difference right atrium vs tracheal): 1.32
- block of heart rate increment effect of L-isoproterenol (β-adrenoreceptor (β1) [1]; right atrium, 10^−6, 10^−5, and 10^−6 M as printed): could competitively block
- β1 Right Atrium (Slope) (β-adrenoreceptor (β1) [1]; slope of Schild regression): (0.94 ± 0.18)
- β1 Value of pA2 Right Atrium (β-adrenoreceptor (β1) [1]): 7.21 ± 0.32
- β1 Value of pA2 Right Atrium (β-adrenoreceptor (β1) [1]; listed as compound 1): 7.21±0.32
- selectivity on the type of β-adrenoceptor (β-adrenoreceptor (β1) [1]; β1:β2): non-selective
- block of heart contractility increment effect of L-isoproterenol (β-adrenoreceptor (β1) [2]; left atrium, 10^−6, 10^−5, and 10^−6 M as printed): could competitively block
- β1 Left Atrium (Slope) (β-adrenoreceptor (β1) [2]; slope of Schild regression): (0.85 ± 0.02)
- β1 Value of pA2 Left Atrium (β-adrenoreceptor (β1) [2]): 6.91 ± 0.26
- β1 Value of pA2 Left Atrium (β-adrenoreceptor (β1) [2]; listed as compound 1): 6.91±0.26
- block of the tracheal effect of L-isoproterenol (β2; 10^−6, 10^−5, and 10^−6 M as printed): could competitively block
- β2 Tracheal (slope) (β2; slope of Schild regression): (0.84 ± 0.09)
- β2 Value of pA2 Tracheal (β2): 7.09 ± 0.54
- β2 Value of pA2 Tracheal (β2; listed as compound 1): 7.09±0.54
- [^3H] CGP-12177 (β1) pKi (atrial β 1-receptor): 6.61 ± 0.46
- [^3H] CGP-12177 (β2) pKi (lung β 2-receptor): 6.20 ± 0.55
- direct effect on right atrium beating rate and left atrium isometric contractions (isolated atria; cumulative administration, reserpine pretreated): could not increase the beating rate and isometric contractions
- concentration with blocking effect on beating rate and isometric contractions (isolated atria; reserpine pretreated atria): ≥ 10^−5 M
- tracheal relaxation after pretreatment with ICI118, 551 (β2-adrenoceptor; ICI 118, 551 10^−8, 10^−9, 10^−10M for 30 minutes (nifedipine: 10^−8 M)): concentration-dependently shifting parallel to the right
- direct tracheal relaxation effect (β2-adrenoceptor; cumulative 10^−10˜3×10^−6 M, reserpine pretreated tracheal): dose-dependant tracheal relaxation effect
- effect on increased atrial beating rate induced by CaCl2 (right atrium): blocked
- Calcium Antagonism PKCa^−1 (Calcium): 7.82 ± 0.49
- [^3H]nitrendipine Ca^2+ PKi [3]: 7.86 ± 0.38
- calcium ion influx effect of BayK8644 (A7r5 cells; 10 μM BayK8644): significantly blocked
- calcium ion influx effect of KCl (A7r5 cells; 50 mM KCl): significantly blocked

From patent US20050009886A1, “1,4-Dihydropyridine derivative with a guaiacoxypropanolamine and/or phenoxypropanolamine moiety” (priority 1998, published 2005)
